Tests used:
[1] = molecular target: T1, 5-HT transporter (Rattus norvegicus, UniProt P31652); experiment: 5-HT uptake inhibition, synaptosomes from rat brain (medulla and pons); assay type: biochemical
T1 construct: from tissue; host or cells: rat brain (medulla and pons), synaptosomes, P2 fraction
Summary of the method: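 Freshly isolated rat brain synaptosomes (P2 fraction): hypothalamus for NA uptake, medulla/pons for 5-HT uptake. Uptake of [3H]-NA (7.5 min) or [3H]-5-HT (5 min) at room temperature under O2, stopped by filtration over GF/B. Retained radioactivity counted by scintillation.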

[2] = molecular target: T2, NA transporter (Rattus norvegicus, UniProt Q9WTR4); experiment: Noradrenalin (NA) uptake inhibition, synaptosomes from rat brain (hypothalamus); assay type: biochemical
T2 construct: from tissue; host or cells: rat brain (hypothalamus), synaptosomes, P2 fraction
Source text: b) Method for Determining Noradrenalin and 5-HT Uptake Inhibition:
Synaptosomes from rat brain regions are freshly isolated for in vitro studies, as described in the publication “The isolation of nerve endings from brain” by E. G. Gray and V. P. Whittaker, J. Anatomy 96, pages 79-88, 1962. The corresponding literature description is hereby introduced as a reference and is deemed to be part of the disclosure.
The tissue (hypothalamus for the determination of noradrenalin uptake inhibition and medulla and pons for the determination of 5-HT uptake inhibition) is homogenised in ice-cooled 0.32 M sucrose (100 mg of tissue/1 mL) in a glass homogeniser with Teflon pestle using five complete up and down strokes at 840 revolutions/minute.
The homogenate is centrifuged at 4° C. for 10 minutes at 1000 g. After subsequent centrifugation at 17000 g for 55 minutes, the synaptosomes (P2 fraction) are obtained, which are resuspended in 0.32 M […] (0.5 mL/100 mg of original weight).
The particular uptake is measured in a 96-well microtitre plate. The volume is 250 μL and the incubation proceeds at room temperature (approx. 20-25° C.) under an O2 atmosphere.
The incubation time is 7.5 minutes for [^3H]-NA and 5 minutes for [^3H]-5-HT. The 96 samples are then filtered through a Unifilter GF/B® microtitre plate (Packard) and washed with 200 mL of incubated buffer using a “Brabdel MPXRI-96T Cell-Harvester”. The Unifilter GF/B plate is dried for 1 hour at 55° C. The plate is then sealed with a Back Seal® (Packard) and 35 μL of scintillation fluid are added per well (Ultima Gold®, Packard). After sealing with a top Seal® (Packard) and establishing an equilibrium (around 5 hours), radioactivity is determined in a “Trilux 1450 Microbeta” (Wallac).
The quantity of protein used in the above determination corresponds to the values known from the literature, as for example described in “Protein measurement with the folin phenol reagent”, Lowry et al., J. Biol. Chem., 193, 265-275, 1951.
A detailed description of the method may additionally be found in the literature, for example in M. Ch. Frink, H.-H. Hennies, W. Engelberger, M. Haurand and B. Wilffert (1996) Arzneim.-Forsch./Drug Res. 46 (III), 11, 1029-1036.
The following characteristics were determined for the NA or 5-HT transporter: […]

T2 sequence (Q9WTR4 1-597): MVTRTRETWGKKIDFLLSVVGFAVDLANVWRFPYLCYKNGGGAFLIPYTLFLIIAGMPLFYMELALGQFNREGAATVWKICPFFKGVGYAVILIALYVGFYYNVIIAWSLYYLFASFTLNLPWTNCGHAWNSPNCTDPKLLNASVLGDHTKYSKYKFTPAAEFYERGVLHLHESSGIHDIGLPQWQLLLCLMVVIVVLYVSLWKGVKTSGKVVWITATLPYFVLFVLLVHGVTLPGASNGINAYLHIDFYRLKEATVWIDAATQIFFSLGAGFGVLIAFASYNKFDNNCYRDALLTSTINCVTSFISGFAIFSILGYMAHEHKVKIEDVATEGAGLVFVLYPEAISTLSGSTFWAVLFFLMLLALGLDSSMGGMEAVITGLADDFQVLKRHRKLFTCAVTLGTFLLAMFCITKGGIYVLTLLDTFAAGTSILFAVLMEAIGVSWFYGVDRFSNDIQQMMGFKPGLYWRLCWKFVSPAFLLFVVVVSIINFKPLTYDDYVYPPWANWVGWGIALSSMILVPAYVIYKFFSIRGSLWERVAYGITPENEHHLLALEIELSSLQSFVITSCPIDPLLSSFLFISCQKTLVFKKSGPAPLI
T1 sequence (P31652 whole entry): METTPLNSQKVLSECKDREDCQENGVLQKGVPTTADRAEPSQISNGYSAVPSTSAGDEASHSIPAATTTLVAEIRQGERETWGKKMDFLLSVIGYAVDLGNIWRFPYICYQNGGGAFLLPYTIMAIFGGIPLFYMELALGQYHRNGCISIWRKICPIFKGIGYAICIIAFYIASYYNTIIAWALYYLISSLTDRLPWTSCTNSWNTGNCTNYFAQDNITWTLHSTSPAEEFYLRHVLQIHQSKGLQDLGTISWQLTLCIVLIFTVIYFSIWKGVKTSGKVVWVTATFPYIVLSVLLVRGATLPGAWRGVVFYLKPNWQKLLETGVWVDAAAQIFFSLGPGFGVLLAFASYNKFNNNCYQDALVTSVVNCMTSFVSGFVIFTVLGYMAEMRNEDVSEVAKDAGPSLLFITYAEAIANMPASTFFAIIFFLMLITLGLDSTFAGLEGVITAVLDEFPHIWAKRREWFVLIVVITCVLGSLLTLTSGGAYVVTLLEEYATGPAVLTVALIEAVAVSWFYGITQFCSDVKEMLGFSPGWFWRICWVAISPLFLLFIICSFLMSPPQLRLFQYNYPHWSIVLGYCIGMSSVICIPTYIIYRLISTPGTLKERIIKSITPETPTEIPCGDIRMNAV

Structure (SMILES) | 5-HT uptake (rat), 10 μM, % inhibition [1] [%] | NA Uptake (rat), 10 μM, % inhibition [2] [%] | inhibition at 10 µM [1] [%] | inhibition at 10 µM [2] [%]
Cc1ccc(NC(=O)N2CCc3onc(C(=O)NCCc4ccccc4)c3C2)cc1[N+](=O)[O-] [Example 4, 6,7-dihydro-4H-isoxazolo[4,5-c]pyridine-3,5-dicarboxylic acid 5-[(4-methyl-3-nitro-phenyl) amide] 3-(phenethyl amide)] | 45 | 57 |  | 
O=C(NCCc1ccccc1)c1noc2c1CN(C(=O)Nc1cccc(F)c1)CC2 [Example 8, 6,7-dihydro-4H-isoxazolo[4,5-c]pyridine-3,5-dicarboxylic acid 5-[(3-fluorophenyl) amide] 3-(phenethyl amide)] | 54 | 66 |  | 
O=C(NCc1ccccc1)c1noc2c1CN(C(=O)NCCc1ccccc1)CC2 [Example 10, 6,7-dihydro-4H-isoxazolo[4,5-c]pyridine-3,5-dicarboxylic acid 3-benzyl amide 5-(phenethyl amide)] | 51 | 42 |  | 
N#Cc1cccc(NC(=O)N2CCc3onc(C(=O)NCc4cccs4)c3C2)c1 [Example 12, 6,7-dihydro-4H-isoxazolo[4,5-c]pyridine-3,5-dicarboxylic acid 5-[(3-cyano-phenyl) amide]3-[(thiophen-2-ylmethyl) amide]] | 51 | 46 |  | 
CCOc1ccc(NC(=O)N2CCc3onc(C(=O)Nc4ccccc4)c3C2)cc1 [Example 13, 6,7-dihydro-4H-isoxazolo[4,5-c]pyridine-3,5-dicarboxylic acid 5-[(4-ethoxy-phenyl) amide] 3-phenyl amide] | 48 | 51 |  | 
CC(NC(=O)N1CCc2onc(C(=O)NCCc3ccccc3)c2C1)c1cccc2ccccc12 (centres unmarked) [Example 18, 6,7-dihydro-4H-isoxazolo[4,5-c]pyridine-3,5-dicarboxylic acid 5-[(1-naphthalen-1-yl-ethyl) amide]3-(phenethyl amide)] | 42 | 47 |  | 
O=C(O)CC1(CC(=O)N2CCc3onc(C(=O)Nc4ccccc4)c3C2)CCCC1 [Example 28, {1-[2-oxo-2-(3-phenylcarbamoyl-6,7-dihydro-4H-isoxazolo[4,5-c]pyridin-5-yl)-ethyl]-cyclopentyl}acetic acid] |  |  | 55 | 44
O=C(NC1CCN(Cc2ccc3ccccc3c2)C1)c1noc2c1CN(S(=O)(=O)c1ccccc1)CC2 (centres unmarked) [Example 33, 5-benzenesulfonyl-4,5,6,7-tetrahydro-isoxazolo[4,5-c]pyridine-3-carboxylic acid (1-naphthalen-2-ylmethyl-pyrrolidin-3-yl) amide] |  |  | 74 | 88
COc1ccc(CNC(=O)c2noc3c2CN(S(=O)(=O)c2ccccc2)CC3)cc1OC [Example 47, 5-benzenesulfonyl-4,5,6,7-tetrahydro-isoxazolo[4,5-c]pyridine-3-carboxylic acid 3,4-dimethoxy-benzyl amide] |  |  | 68 | 67
O=C(c1noc2c1CN(S(=O)(=O)c1cc(Cl)ccc1Cl)CC2)N(CCc1ccccc1)Cc1ccccc1 [Example 59, 5-(2,5-dichloro-benzenesulfonyl)-4,5,6,7-tetrahydro-isoxazolo[4,5-c]pyridine-3-carboxylic acid benzyl-phenethyl amide] |  |  | 71 | 79
O=C(c1noc2c1CN(S(=O)(=O)c1cccc(C(F)(F)F)c1)CC2)N(CCc1ccccc1)Cc1ccccc1 [Example 68, 5-(3-trifluoromethyl-benzenesulfonyl)-4,5,6,7-tetrahydro-isoxazolo[4,5-c]pyridine-3-carboxylic acid benzyl-phenethyl amide] |  |  | 63 | 84
O=C(c1noc2c1CN(S(=O)(=O)c1ccccc1)CC2)N1CCN(CC=Cc2ccccc2)CC1 [Example 97, (5-benzenesulfonyl-4,5,6,7-tetrahydro-isoxazolo[4,5-c]pyridin-3-yl)-[4-(3-phenyl-allyl)-piperazin-1-yl]-methanone] |  |  | 67 | 75
O=C(NC1CCN(Cc2ccccc2)C1)c1noc2c1CN(S(=O)(=O)c1ccc(OC(F)(F)F)cc1)CC2 (centres unmarked) [Example 117, 5-(4-trifluoromethoxy-benzenesulfonyl)-4,5,6,7-tetrahydro-isoxazolo[4,5-c]pyridine-3-carboxylic acid (1-benzyl-pyrrolidin-3-yl)-amide] |  |  | 68 | 75
Cc1ccc(S(=O)(=O)N2CCc3onc(C(=O)NC(C)C(=O)OC(C)(C)C)c3C2)cc1 (centres unmarked) [Example 120, 2-{[5-(toluene-4-sulfonyl)-4,5,6,7-tetrahydro-isoxazolo[4,5-c]pyridine-3-carbonyl]-amino}-propionic acid tert-butyl ester] |  |  |  | 62
CCOC(=O)CCNC(=O)c1noc2c1CN(S(=O)(=O)c1ccc(Cl)cc1)CC2 [Example 121, 3-{[5-(4-chloro-benzenesulfonyl)-4,5,6,7-tetrahydro-isoxazolo[4,5-c]pyridine-3-carbonyl]-amino}-propionic acid ethyl ester] |  |  |  | 61
CN(C)S(=O)(=O)N1CCc2onc(C(=O)NCCc3ccc(Cl)c(Cl)c3)c2C1 [Example 122, 5-dimethylsulfamoyl-4,5,6,7-tetrahydro-isoxazolo[4,5-c]pyridine-3-carboxylic acid [2-(3,4-dichloro-phenyl)-ethyl] amide] |  |  |  | 63
CCOC(=O)CCNC(=O)c1noc2c1CN(C(=O)Cc1ccc3ccccc3c1)CC2 [Example 125, 3-{[5-(2-naphthalen-2-yl-acetyl)-4,5,6,7-tetrahydro-isoxazolo[4,5-c]pyridine-3-carbonyl]-amino}-propionic acid ethyl ester] |  |  |  | 63
COc1ccc(CNC(=S)N2CCc3onc(C(=O)NC4CCCC4)c3C2)cc1 [Example 127, 5-(4-methoxy-benzylthiocarbamoyl)-4,5,6,7-tetrahydro-isoxazolo[4,5-c]pyridine-3-carboxylic acid cyclopentyl amide] |  |  |  | 63
COCCNC(=S)N1CCc2onc(C(=O)NCCc3ccccc3)c2C1 [Example 130, 5-(2-methoxy-ethylthiocarbamoyl)-4,5,6,7-tetrahydro-isoxazolo[4,5-c]pyridine-3-carboxylic acid phenethyl amide] |  |  |  | 67
O=C(NCCc1ccccc1)c1noc2c1CN(C(=S)Nc1c(F)c(F)c(F)c(F)c1F)CC2 [Example 131, 5-pentafluorophenylthiocarbamoyl-4,5,6,7-tetrahydro-isoxazolo[4,5-c]pyridine-3-carboxylic acid phenethyl amide] |  | 73 |  | 
CC(NC(=S)N1CCc2onc(C(=O)NCCc3ccccc3)c2C1)c1ccccc1 (centres unmarked) [Example 132, 5-(1-phenyl-ethylthiocarbamoyl)-4,5,6,7-tetrahydro-isoxazolo[4,5-c]pyridine-3-carboxylic acid phenethyl amide] |  |  |  | 76
O=C(Nc1ccccc1)c1noc2c1CN(Cc1ccc3ccccc3c1Br)CC2 [Example 135, 5-(1-bromo-naphthalen-2-ylmethyl)-4,5,6,7-tetrahydro-isoxazolo[4,5-c]pyridine-3-carboxylic acid phenyl amide] |  |  |  | 60
O=C(c1noc2c1CN(S(=O)(=O)c1ccc(Cl)c(Cl)c1)CC2)N1CCN(c2nccs2)CC1 [Example 140, (5-(3,4-dichlorophenylsulfonyl)-4,5,6,7-tetrahydroisoxazolo[4,5-c]pyridin-3-yl)(4-(thiazol-2-yl)piperazin-1-yl)methanone] |  |  | 47 | 46
Cc1cc(C)c(S(=O)(=O)N2CCc3onc(C(=O)N4CCN(c5nccs5)CC4)c3C2)c(C)c1 [Example 141, (5-(mesitylsulfonyl)-4,5,6,7-tetrahydroisoxazolo[4,5-c]pyridin-3-yl)(4-(thiazol-2-yl)piperazin-1-yl)methanone] |  |  | 58 | 41
O=C(c1noc2c1CN(S(=O)(=O)c1cccc3ccccc13)CC2)N1CCN(c2nccs2)CC1 [Example 142, (5-(naphthalen-1-ylsulfonyl)-4,5,6,7-tetrahydroisoxazolo[4,5-c]pyridin-3-yl)(4-(thiazol-2-yl)piperazin-1-yl)methanone] |  |  | 30 | 31
